Assay results taken from patent US20210330611A1, “THERAPY FOR NEUROLOGICAL DISEASES/DISORDERS” (priority 2020, published 2021).
Counter-ions that a name gives are not always drawn. Like-named read-outs stand apart in the source and are kept apart here.

Tests used:
[1] = test system: LPS-induced microglia activation; assay: Image-based assay of LPS-induced microglia activation (HTS and dose response); assay type: cell-based, rat; conditions: Rattus norvegicus, Microglia; for inhibition at 10 µM: read-out: LPS % inhibition
[2] = test system: fibrin-induced microglia activation; assay: Image-based assay of fibrin-induced microglia activation (HTS and dose response); assay type: cell-based, rat; conditions: for IC50 / inhibition at 10 µM: Rattus norvegicus, Microglia; for inhibition at 10 µM: read-out: Fibrin % inhibition
[3] = test system: fibrin- and LPS-induced microglia activation; assay: cells; assay type: cell-based, rat; conditions: for inhibition at 10 µM: Rattus norvegicus
in vitro [4] = conditions: rat
primary rat microglia [5] = assay: Cell toxicity (dead cells, size <150 μm2) in coated fibrin (cFib) assay; conditions: for Fibrin % cell toxicity: primary microglia HTS, fibrin stimulation, decreased size (<150 μm^2) as marker of toxicity;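 on Fibrin % cell toxicity: share of dead cells sized under 150 µm2 at 10 µM in fibrin-stimulated microglia HTS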
primary rat microglia [6] = assay: Cell toxicity (dead cells, size <150 μm2) in LPS assay; conditions: for IC50: read-out: Cell Toxicity IC50 (uM) [LPS assay], LPS assay; for LPS % cell toxicity: primary microglia HTS, LPS stimulation, decreased size (<150 μm^2) as marker of toxicity
in vitro [7] = conditions: rat, Cell Toxicity IC50 (uM) [cFib assay]
[8] = 48 h, Table 1, dose response 0.001-20 μM, triplicates, primary rat microglia, 48 h, read-out: LPS IC50
[9] = 48 h, primary microglia HTS, LPS stimulation, increased cell size (>800 μm^2) as marker of activation
[10] = LPS-induced microglia activation, dose response, read-out: LPS IC50 (uM) (Suppl. Table 7)
[11] = Table 3, read-out: LPS IC50 (uM) (Suppl. Table 7)
[12] = dose response, LPS-induced microglia activation, read-out: LPS IC50
[13] = 48 h, Table 1, dose response 0.001-20 μM, triplicates, primary rat microglia, 48 h, read-out: Fibrin IC50
[14] = Table 3, read-out: Fibrin IC50 (uM) (Suppl. Table 7)
[15] = dose response, fibrin-induced microglia activation, read-out: Fibrin IC50
[16] = fibrin-induced microglia activation, dose response, read-out: Fibrin IC50 (uM) (Suppl. Table 7)
[17] = primary microglia HTS, fibrin stimulation, increased cell size (>800 μm^2) as marker of activation
[18] = HTS of 1907 compounds, quadrant by fibrin and LPS inhibition
[19] = Microglia, Table 3, read-out: Cherry-picked Hit (Suppl. Table 7)
[20] = Microglia, HTS hit classification, read-out: Hit
[21] = quadrant by fibrin and LPS inhibition in HTS of 1907 compounds
[22] = Table 6, read-out: LPS IC50 (uM) (Suppl. Table 7)
[23] = Table 6, read-out: Fibrin IC50 (uM) (Suppl. Table 7)
[24] = hit classification in microglia HTS, read-out: Cherry-picked Hit (Suppl. Table 7)

Structure (SMILES) | IC50 [1, 8] [µM] | inhibition at 10 µM [1, 9] [%] | IC50 [1, 10] [µM] | IC50 [1, 11] [µM] | IC50 [1, 12] [µM] | IC50 [2, 13] [µM] | IC50 [2, 14] [µM] | IC50 [2, 15] [µM] | IC50 [2, 16] [µM] | inhibition at 10 µM [2, 17] [%] | Quadrant (FIG. 5b) [3, 18] | inhibition at 10 µM [3, 19] [%] | inhibition at 10 µM [3, 20] [%] | Quadrant (FIG. 5b) ([3]; Table 1, screen at 10 μM) | Quadrant (FIG. 5b) ([3]; Table 3, screen at 10 μM) | Quadrant (FIG. 5b) [3, 21] | IC50 (in vitro [4]) [µM] | IC50 (in vitro [7]; cFib assay) [µM] | Fibrin % cell toxicity (primary rat microglia [5]) [%] | LPS % cell toxicity (primary rat microglia [6]) [%] | other results
C[C@H]1C[C@H]2[C@@H]3CCC4=CC(=O)C=C[C@]4(C)[C@@]3(F)[C@@H](O)C[C@]2(C)[C@@]1(O)C(=O)CO [Betamethasone, reference compound] | 0.01 | 94 | 0.01 | 0.01 | 0.01 | < 0.001 | < 0.001 | < 0.001 | < 0.001 | 103 | Q2 | > 50 | > 50 | Q2 | Q2 | Q2 | > 20 | > 20 |  |  | IC50 ([1]; Table 7, read-out: LPS_IC50): 0.002 µM; inhibition at 10 µM ([1]; primary HTS, 10 μM, LPS-stimulated primary microglia): -9%; IC50 ([2]; Table 7, read-out: fib_IC50): 0.002 µM; inhibition at 10 µM ([2]; primary HTS, 10 μM, fibrin-stimulated primary microglia): -4%; Quadrant (FIG. 5b) ([3]; Table 2, screen at 10 μM): Q2; Quadrant (FIG. 5b) ([3]; primary HTS, 10 μM): Q4; IC50 (primary rat microglia [5]; Rattus norvegicus, Microglia, read-out: dead_IC50 (uM), Table 7, fibrin or LPS assay not specified): 2.08 µM; IC50 (primary rat microglia [6]): > 20 µM; IC50 (in vitro [7]; Table 3): > 20 µM
Cc1cccc(C)c1N=C1NCCCS1 [Xylazine hydrochloride, reference compound] | 8 | 72 | 8 | 8 | 8 | 2 | 2 | 2 | 2 | 102 | Q2 | > 50 | > 50 | Q2 | Q2 | Q2 | > 20 | > 20 | 1 | 2 | Fibrin Selectivity [2]: 5; Fibrin Selectivity (LOG10) [2]: 0.72; IC50 (primary rat microglia [6]): > 20 µM; IC50 (in vitro [7]; Table 3): > 20 µM
CCOC(=O)O[C@]1(C(=O)COC(=O)CC)CC[C@H]2[C@@H]3CCC4=CC(=O)C=C[C@]4(C)[C@H]3[C@@H](O)C[C@@]21C [Prednicarbate, reference compound] | > 20 | 73 | > 20 | > 20 | > 20 | 0.002 | 0.002 | 0.002 | 0.002 | 61 | Q2 | > 50 | > 50 | Q2 | Q2 | Q2 | > 20 | > 20 | 1 | 1 | IC50 [1, 22]: > 20 µM; Fibrin Selectivity [2]: 8510; Fibrin Selectivity (LOG10) [2]: 3.93; IC50 [2, 23]: 0.002 µM; Quadrant (FIG. 5b) ([3]; microglia HTS, Table 6): Q2; IC50 (primary rat microglia [6]): > 20 µM; IC50 (primary rat microglia [6]; Table 6): > 20 µM; IC50 (in vitro [7]; Table 3): > 20 µM; IC50 (in vitro [7]; cFib assay, Table 6): > 20 µM
CC(=O)OCC(=O)[C@@]1(O)CC[C@H]2[C@@H]3CCC4=CC(=O)CC[C@]4(C)[C@@]3(F)[C@@H](O)C[C@@]21C [Fludrocortisone acetate, reference compound] | 0.4 | 101 | 0.4 | 0.4 | 0.4 | < 0.001 | < 0.001 | < 0.001 | < 0.001 | 104 | Q2 | > 50 | > 50 | Q2 | Q2 | Q2 | > 20 | > 20 | 2 | 4 | IC50 [1, 22]: 0.4 µM; IC50 ([1]; Table 7, read-out: LPS_IC50): 0.002 µM; Fibrin Selectivity [2]: 362; Fibrin Selectivity (LOG10) [2]: 2.56; IC50 [2, 23]: < 0.001 µM; IC50 ([2]; Table 7, read-out: fib_IC50): 0.002 µM; Quadrant (FIG. 5b) ([3]; Table 2, screen at 10 μM): Q2; Activity ([3]; Table 7, fib = fibrin, LPS, tox = toxicity): fib/LPS; Quadrant (FIG. 5b) ([3]; microglia HTS, Table 6): Q2; IC50 (primary rat microglia [6]): > 20 µM; IC50 (primary rat microglia [6]; Table 6): > 20 µM; IC50 (in vitro [7]; Table 3): > 20 µM; IC50 (in vitro [7]; cFib assay, Table 6): > 20 µM
Cc1cccc(C)c1NC(=O)c1ccccc1C(=O)O [Ftaxilide, reference compound] | > 20 | 42 | > 20 |  | > 20 | > 20 |  | > 20 | > 20 | 78 | Q3 |  | > 50 | Q3 |  | Q3 | > 20 | > 20 | 2 | 1 | inhibition at 10 µM [3, 24]: > 50%
CCCCC(=O)O[C@]1(C(=O)CO)[C@@H](C)C[C@H]2[C@@H]3CCC4=CC(=O)C=C[C@]4(C)[C@@]3(F)[C@@H](O)C[C@@]21C [Betamethasone valerate, reference compound] | > 20 | 55 | > 20 |  | > 20 | 20 |  | 20 | 20 | 69 | Q2 |  | > 50 | Q2 |  | Q2 | > 20 | > 20 | 1 | 1 | inhibition at 10 µM [3, 24]: > 50%
NS(=O)(=O)c1cc(C2(O)NC(=O)c3ccccc32)ccc1Cl (centres unmarked) [Chlorthalidone, reference compound] | > 20 | 35 | > 20 |  | > 20 | > 20 |  | > 20 | > 20 | 77 | Q3 |  | > 50 | Q3 |  | Q3 | > 20 | > 20 | 2 | 1 | inhibition at 10 µM [3, 24]: > 50%
COc1ccc(-n2nc(CCC(=O)N(C)O)cc2-c2ccc(Cl)cc2)cc1 [Tepoxalin, reference compound] | 18 | 66 | 18 | 18 | 18 | 3 | 3 | 3 | 3 | 76 | Q2 | > 50 | > 50 | Q2 | Q2 | Q2 | > 20 | > 20 | 1 | 2 | Fibrin Selectivity [2]: 6; Fibrin Selectivity (LOG10) [2]: 0.75; IC50 (primary rat microglia [6]): > 20 µM; IC50 (in vitro [7]; Table 3): > 20 µM
COc1ccccc1N1CCN(CC(O)COc2cccc3ccccc23)CC1 (centres unmarked) [Naftopidil dihydrochloride, reference compound] | > 20 | 32 | > 20 | > 20 | > 20 | 7 | 7 | 7 | 7 | 59 | Q3 | > 50 | > 50 | Q3 | Q3 | Q3 | > 20 | > 20 | 1 | 0 | Fibrin Selectivity [2]: 3; Fibrin Selectivity (LOG10) [2]: 0.45; IC50 (primary rat microglia [6]): > 20 µM; IC50 (in vitro [7]; Table 3): > 20 µM
